Source: patent US20050009748A1, “Compositions for delivering peptide YY and PYY agonists” (Emisphere Technologies, Inc., priority 2003, published 2005)
Several values for one entry are separate records, joined by “and”; a condition that tells them apart may be missing. Equal values may be shown once.

What was measured:
[1] = Solid oral delivery of PYY[3-36] in feed restricted rats (serum PYY radioimmunoassay); format: in vivo, Male Sprague Dawley rats; settings: 1 tablet per animal
Method: An oral dosing tube was used.
Blood samples were collected serially from the tail artery, by cardiac puncture, or as in this case by retro-orbitally, typically at time=0, 15, 30, 60 and 90 minutes.

[2] = Liquid oral delivery of PYY[3-36] in rats (oral gavage, serum PYY[3-36] radioimmunoassay); format: in vivo, Male Sprague-Dawley rats; settings: oral gavage solution, Delivery Agent 200 mg/kg, PYY[3-36] 0.3 mg/kg, 1 ml/kg
Method: SNAC monosodium salt, solid was dissolved in water. The pH of this solution was close to pH 7.5, so no pH adjustments were done. […] The final pH of these solutions was 7.5.
The pH was then lowered to 7.7 by adding HCl (5N). […] The final pH of these solutions varied between 7.5 and 7.6.
Each delivery agent compound (as the free acid or monosodium salts) was dissolved in water. The pH was adjusted to approximately 7.5 by adding HCl (5N) and NaOH (5N) as needed. […] The final pH of these solutions was approximately 7.5.
The typical dosing and sampling protocols were as follows. Male Sprague-Dawley rats weighing between 240-320 g were fasted up to a maximum 24 hours before the experiments and administered ketamine (44 mg/kg) and thorazine (1.5 mg/kg) by intramuscular injection before the test article administration. Afterwards, the anesthetized animals were administered the test article by oral gavage. A dosing group of five animals was administered one of the dosing solutions. For oral gavage (PO), an 11 cm Rusch 8 French catheter was adapted to a 1 ml syringe with a pipette tip. The syringe was filled with dosing solution by drawing the solution through the catheter, which was then wiped dry. The catheter was placed down the esophagus leaving 1 cm of tubing past the incisors. The dosing solution was administered by pressing the syringe plunger.
Blood samples were collected serially from the tail artery, or by cardiac puncture, typically at time=0, 15, 30, 45, 60 and 90 minutes. […] Results from the animals in each group were averaged for each time point.

[3] = rats, end of 7-day study, food found in the stomachs
Method: Food was removed prior to dosing and returned 30 minutes after dosing.
An oral dosing tube was used. The dosing tube was inserted into the rat's mouth and carefully threaded down the rats pharynx and esophagus about 8 cm to about 15 cm depending on the weight of the rat (typically about 11 cm). The solid dosage form was delivered into the distal esophagus and/or stomach by pressing the plunger of the oral dosing tube.
Food consumption was determined every 24 hours from the weight difference between the food given to and food left over by each rat. The body weight of each rat was determined every 24 hours.

[4] = Delivery Agent 100 mg/kg, PYY[3-36] 0.3 mg/kg
[5] = Delivery Agent 50 mg/kg, PYY[3-36] 0.3 mg/kg

Compound | Mean serum peak of PYY (pg/ml) ± SD [1, 4] | Mean Peak Serum [PYY(3-36)] (pg/ml) ± SD [2] | further results
COc1ccc(C(=O)NCCCCCCCC(=O)O)c(O)c1 [Delivery Agent 4, 8-(2-hydroxy-4-methoxybenzoylamino)octanoic acid] | 1821.82 ± 1513.84 pg/mL | 830.246 ± 71.382 pg/mL | 
O=C(O)CCCCCCCNC(=O)c1c(O)cccc1O [Delivery Agent 5, 8-(2,6-dihydroxybenzoylamino)octanoic acid] |  | 800.318 ± 40.61 pg/mL | 
O=C(O)CCCCCCCNC(=O)c1cc(Br)ccc1O [Delivery Agent 6, 8-(2-hydroxy-5-bromobenzoylamino)octanoic acid] |  | 812.946 ± 53.616 pg/mL | 
O=C(O)CCCCCCCNC(=O)c1cc(Cl)ccc1O [Delivery Agent 7, 8-(2-hydroxy-5-chlorobenzoylamino)octanoic acid] | 1064.18 ± 363.8 pg/mL | 663.472 ± 135.394 pg/mL | Mean serum peak of PYY (pg/ml) ± SD [1, 5]: 725.96 ± 110.78 pg/mL; Mean serum peak of PYY (pg/ml) ± SD ([1]; Delivery Agent 100 mg/kg, PYY[3-36] 0 mg/kg (delivery agent alone)): 14.35 ± 19.71 pg/mL
O=C(O)CCCCCCCNC(=O)c1cc(I)ccc1O [Delivery Agent 8, 8-(2-hydroxy-5-iodobenzoylamino)octanoic acid] |  | 276.82 ± 425.45 pg/mL | 
Cc1ccc(O)c(C(=O)NCCCCCCCC(=O)O)c1 [Delivery Agent 9, 8-(2-hydroxy-5-methylbenzoylamino)octanoic acid] | 1309.8 ± 836.33 pg/mL | 732.912 ± 266.578 pg/mL | 
O=C(O)CCCCCCCNC(=O)c1cc(F)ccc1O [Delivery Agent 10, 8-(2-hydroxy-5-fluorobenzoylamino)octanoic acid] |  | 846.416 ± 55.993 pg/mL | Mean serum peak of PYY (pg/ml) ± SD [1, 5]: 897.18 ± 549.5 pg/mL
O=C(O)CCCCCCCOc1cccc(O)c1 [Delivery Agent 12, 8-(3-hydroxyphenoxy)octanoic acid] |  | 845.682 ± 69.846 pg/mL and 1047.46 ± 36.93 pg/mL | 
O=C(O)CCCCCCCOc1ccc(O)cc1 [Delivery Agent 13, 8-(4-hydroxyphenoxy)octanoic acid] |  | 826.48 ± 379.12 pg/mL | 
N#Cc1ccccc1OCCCCCC(=O)O [Delivery Agent 14, 6-(2-cyanophenoxy)hexanoic acid] |  | 913.536 ± 33.688 pg/mL and 1083.38 ± 78.878 pg/mL | 
O=C(O)CCCCCCCOc1ccc(O)cc1 [Delivery Agent 17, 8-(4-hydroxyphenoxy)octanoate] |  |  | Mean serum peak of PYY (pg/ml) ± SD ([1]; Delivery Agent 100 mg/kg, PYY[3-36] 0.3 mg/kg, listed as 17): 897.18 ± 549.5 pg/mL
O=C(O)CCCCCCCOc1ccc(O)cc1 [Delivery Agent 18, 8-(4-hydroxyphenoxy)octanoate] | 1216.13 ± 661.31 pg/mL |  | Mean serum peak of PYY (pg/ml) ± SD [1, 5]: 940.33 ± 1090.65 pg/mL
PYY[3-36] |  |  | effect on gastric emptying [3]: no effect on gastric emptying
